The results in this text go back to PubChem BioAssay AID1850 (Southern Research Specialized Biocontainment Screening …, 2009).

Several values for one entry are separate records, joined by “and”; a condition that tells them apart may be missing. Equal values may be shown once.

The experiment has as its system Salmonella Typhi PhoP-promoter GFP reporter, fluorescence, 4 h. As to the kind of experiment: PhoP regulon inhibitors, Salmonella typhi PhoP promoter GFP reporter, confirmatory (AID 1850).
Broadly, the IC50 is the point on the concentration scale where inhibition reaches its midpoint. With `CCn1cc(C(=O)O)c(=O)c2cc(F)c(N3CCN(C(=S)Nc4ccc(OC)cc4)CC3)cc21`, the half-maximal inhibitory concentration (IC50) was 5.79 µM. In the case of `Cc1ccc2c(c1)C1CN(C)CCC1N2Sc1ccccc1[N+](=O)[O-]` (stereo not given), the IC50 was 43.7 µM. With `CCOC(=O)C1=C(O)c2ccccc2C(=O)/C1=C\c1ccc(C)cc1` the figure was 142 µM; with `CCCCC(=O)NC(=S)NNC(=O)CC`, 70.2 µM; with `CN(O)/C=c1/ccc2c(n1)C(=O)C=CC=2`, 34.8 µM.

`c1ccc(Nc2ccnc(Nc3ccccc3)n2)cc1`: the IC50 is 33.6 µM. With `O=C(N/N=C/c1cc([N+](=O)[O-])ccc1O)c1cccc2cc[nH]c12` the figure was 36.5 µM; with `O=C(Nc1c(Cl)ccc2nsnc12)c1ccc([N+](=O)[O-])o1`, 91.4 µM; with `COC12C(COC(N)=O)C3=C(C(=O)C(C)=C(N)C3=O)N1CC1C2N1C` (stereo not given), 8.18 µM. With `CCN1c2ccccc2NC2N=C(OC)C(c3ccccc3)C21` (stereo not given) the figure was 78.9 µM; with `Cc1cc(OCC(O)CNC(C)c2ccccc2)ccc1C(C)C` (stereo not given), 38.1 µM. For `OC(CNCCc1ccccc1)COc1ccc(OCC(O)CNCCc2ccccc2)cc1` (stereo not given), the IC50 was 35.8 µM. `O/N=C/C1=C(Cl)c2ccccc2CC1`: the IC50 is 125 µM. For the compound `CCCCOc1ccc(NC2=NC3(CCCCC3)N=C(N)N2)cc1`, the IC50 is 6.52 µM. As for `Cc1ccc2nc(N(CCCN(C)C)C(=O)c3sc4ccccc4c3Cl)sc2c1`, the IC50 is 35.5 µM. In the case of `Cc1cc(NC(=O)c2ccccc2)sc1C`, the IC50 is 62.3 µM.

On to `O=C(C[n+]1cccc(CNC(=O)c2ccc(OC(F)F)cc2)c1)Nc1ccc(SC(F)F)cc1`, for which the IC50 was 83.2 µM. With `Cc1ccc(OCC(O)Cn2c(=N)n(CCN3CCCCC3)c3ccccc32)cc1` (stereo not given) the figure was 112 µM; with `CN1CCN(/N=C/c2c3ccccc3c(Cl)c3ccccc23)CC1`, 74.6 µM; with `CN1CCN(C(c2ccc(Br)cc2)c2cc(Cl)c3cccnc3c2O)CC1` (stereo not given), 68.3 µM.

As to `CN1CCN(Cc2cc(COCc3ccccc3)c3cccnc3c2O)CC1`, the IC50 is 37.6 µM. As to `O=C(C[n+]1cc(-c2ccc(Cl)cc2)n2c1CCC2)N1c2ccccc2Sc2ccccc21`, the IC50 was 81.5 µM. Turning to `NC(=O)SCC(=O)Nc1cccc(Cl)c1`, the IC50 was 9.08 µM.

Turning to `Cc1ccc2c(c1)c1c(n2CC(O)CNC2CCCCC2)CCCC1` (stereo not given), the IC50 is 46.9 µM. Consider `Clc1cccc(/C=N\Nc2nccs2)c1`, for which the 50% inhibitory concentration (IC50) was 18.6 µM. For `CN1CCN(C(c2ccc(C(F)(F)F)cc2)c2ccc3cccnc3c2O)CC1` (stereo not given), the IC50 is 20 µM. On to `Cc1ccc(NC(=O)COc2ccccc2CNC(C)(C)CC(C)(C)C)cc1`, for which the IC50 was 91.6 µM.

In the case of `Clc1ccc(OCCCN2CCCC2)cc1Cl`, the IC50 was 93.3 µM. Regarding `Oc1ccc(CN2CCCc3ccccc32)c2cccnc12`, the IC50 is 83 µM. With `N#C/C(=C\c1ccc[nH]1)C(=O)NC1CC1` the figure was 73.8 µM; with `CCn1cc(C(=O)O)c(=O)c2cnc(N3CCNCC3)nc21`, 25.7 µM. To `Cc1nonc1C(=O)N/N=C/c1ccc([N+](=O)[O-])o1` belongs 37.5 µM; to `CCOc1ccc(Nc2nc(NCC3CCCO3)c3ccccc3n2)cc1` (stereo not given), 3.28 µM. With `CSc1ccc2c(c1)C(N1CCN(C)CC1)Cc1ccc(F)cc1S2` (stereo not given), the IC50 is 36.8 µM.

On to `Cc1ccc2c(c1)sc(-c1ccc(N(C)C)cc1)[n+]2C`, for which the IC50 is 24.1 µM. In the case of `O=C(CSc1nnc(-c2ccccc2)n1-c1ccc(Cl)cc1)NC1CCS(=O)(=O)C1` (stereo not given), the IC50 was 73.8 µM. With `CNCCCCOc1ccc(C(C)(C)C)cc1Cl` the figure was 77 µM; with `O=C(N/N=C/c1cc(Cl)ccc1O)c1cccnc1`, 37.6 µM. `COc1ccc(CNCC(O)COc2ccc(C(C)(C)c3ccccc3)cc2)cc1` (stereo not given): the IC50 was 20.9 µM. For the compound `NC(=O)c1ccc(N=C2C(=O)Nc3ccc([N+](=O)[O-])cc32)cc1`, the IC50 was 34.6 µM. As for `Brc1ccc2c(c1)C(OC1CN3CCC1CC3)c1ccccc1CS2` (stereo not given), the IC50 was 38.2 µM. To `CCN(CC)c1ccc(CNc2nc3ccccc3n2CCN2CCCCC2)cc1` belongs 52.1 µM; to `CN(C)c1ccc(O)c2c1CC1CC3[C@@H](N(C)C)C(=O)C(C(N)=O)=C(O)[C@]3(O)C(=O)C1=C2O` (stereo not given in full), 8.82 µM; to `Fc1ccc([C@@H]2CCNC[C@H]2COc2ccc3c(c2)OCO3)cc1`, 42.9 µM. `CN(C)c1ccc(/C=C/c2ccc3ccccc3[n+]2C)cc1`: the IC50 is 18.7 µM. On to `Cc1c(Cl)cccc1Nc1nc(NCCO)c2ccccc2n1`, for which the IC50 was 10.8 µM. Turning to `O=C(CCN1CCN(c2ccccc2)CC1)c1ccc(Cl)cc1`, the half-maximal inhibitory concentration (IC50) was 64.9 µM. With `c1ccc(Nc2nc(NCc3ccco3)c3ccccc3n2)cc1`, the IC50 was 5.97 µM. On to `O=C(O)c1cn(-c2ccc(F)cc2)c2cc(Cl)c(F)cc2c1=O`, for which the IC50 was 83.7 µM. For `O=C(Nc1c2ccccc2nc2ccccc12)C(Cl)(Cl)Cl`, the IC50 is 63.5 µM. `CCCCCCCCCCOC(=O)Cn1c(COc2ccc(OC)cc2)[n+](C)c2ccccc21`: the IC50 is 22.7 µM and 14.4 µM. As for `N/C(=N\OS(=O)(=O)c1ccc2ccccc2c1)c1cccnc1`, the IC50 was 20.7 µM. For `Nc1cccc2c(=O)c3ccccc3[nH]c12`, the IC50 is 21.5 µM. To `C/C(=C\C(=O)OCCCCCCCCC(=O)O)C[C@@H]1OC[C@H](C[C@@H]2O[C@H]2[C@@H](C)[C@H](C)O)[C@@H](O)[C@H]1O` belongs 13.1 µM.

Regarding `c1ccc(CN2CCN(c3nc(NCc4ccco4)c4ccccc4n3)CC2)cc1`, the IC50 is 38 µM. With `O=C(Cc1cccs1)N/N=C\c1ccc([N+](=O)[O-])s1`, the IC50 is 35 µM. As for `OCCNc1nc(Nc2ccccc2)nc2ccccc12`, the half-inhibitory concentration (IC50) is 10.2 µM.

`CCn1cc(C(=O)NCC(C)C)c(=O)c2cc(F)c(N3CCN(C)CC3)cc21`: the IC50 was 14.9 µM. With `CCCCCCCCCCCCCCCCn1cc[n+](C)c1` the figure was 31.2 µM. For `OCCCNc1c2ccccc2nc2ccccc12`, the half-inhibitory concentration (IC50) is 105 µM. To `Cn1c(-c2ccc3c(c2)OCO3)cnc1NCc1ccc(Cl)cc1` belongs 81.8 µM. With `CCCCOc1ccc(NC2=NC3(CCCC3)N=C(N)N2)cc1` the figure was 20.8 µM; with `Cc1ccc(Nc2nc(NCCO)c3ccccc3n2)cc1C`, 18.7 µM; with `COc1ccc(OCC(O)CNc2ccc(Br)cc2)cc1` (stereo not given), 5.72 µM. Regarding `CN1CCN(c2nc3cc(C(F)(F)F)ccc3n3cccc23)CC1`, the IC50 is 73.7 µM.

As to `CCOC(=O)N1CCN(Cc2cc(Cl)c3cccnc3c2O)CC1`, the IC50 was 61.7 µM. Turning to `CCN(CCC(=O)Nc1ccc(Br)c(C)c1)Cc1ccccc1`, the IC50 was 75.1 µM.

Regarding `COc1ccc(C(=O)N/N=C/c2sc3ccccc3c2O)cc1`, the IC50 was 73.3 µM.

As for `CC(C)(C)c1ccc(OCCCNC2CCCC2)cc1`, the IC50 is 83.2 µM. As to `OCCN1CCN(CCCN2c3ccccc3Sc3ccc(Cl)cc32)CC1`, the IC50 is 69.2 µM. Regarding `O=C(NC(=S)NNC(=O)c1ccccc1O)c1ccco1`, the concentration for half-maximal inhibition (IC50) was 29.5 µM.

Take `CN(C)[C@@H]1C(=O)C(C(N)=O)=C(O)[C@@]2(O)C(=O)C3=C(O)c4c(O)cccc4[C@@](C)(O)C3[C@H](O)C12` (stereo not given in full): the IC50 was 1.03 µM and 4.02 µM. `c1cc2c(cc1C1CCCCC1)c1c3n2CCN=C3CCC1`: the half-inhibitory concentration (IC50) was 51.1 µM. To `O=C(Cc1ccccc1)N/N=C/c1cc(Br)cc(Cl)c1O` belongs 32.7 µM; to `COc1ccc(Nc2c3ccccc3nc3ccccc23)cc1`, 35.4 µM; to `N/C(=N\OS(=O)(=O)c1ccc(Cl)cc1)c1cccnc1`, 26.6 µM. Take `Cc1ccc(NC(=O)CSC(N)=O)cc1Cl`: the IC50 is 10.4 µM. For `C=CC1=C(C(=O)O)N2C(=O)[C@@H](NC(=O)/C(=N\O)c3csc(N)n3)[C@H]2SC1` (stereo in doubt), the IC50 is 19.1 µM. `CCCCNCCCOc1cccc(Cl)c1Cl`: the IC50 is 148 µM. As to `CCOc1ccc(Nc2c3ccccc3nc3ccccc23)cc1`, the IC50 is 10.2 µM. Regarding `Cc1ccc(NNS(=O)(=O)c2ccc(C)cc2)cc1`, the IC50 was 53.7 µM. Take `O=Nc1ccc(O)c2ncccc12`: the IC50 was 17.8 µM.

Regarding `Cc1c2ccncc2c(C)c2c1[nH]c1ccccc12`, the IC50 was 18.8 µM. As to `CCOC(=O)c1ccc(CNCc2ccc(Br)cc2)cc1`, the IC50 was 78.5 µM. On to `O=C(/C=C/c1cccs1)NC(=S)NNC(=O)c1ccccc1O`, for which the IC50 is 35.2 µM. On to `Cc1ccc(Nc2cc(C)nn2-c2nc(C)cc(=O)[nH]2)cc1`, for which the IC50 is 11.9 µM. Take `NC1=NC[C@H](Cc2ccc(O)cc2)N1CCCCC1CCCCC1`: the IC50 was 17.7 µM. Turning to `C/C(=N\N=C(N)N)c1ccc(Cl)c(Cl)c1`, the 50% inhibitory concentration (IC50) is 78.1 µM. With `c1ccc2c(c1)CSc1sccc1C2=C1CCNCC1`, the half-maximal inhibitory concentration (IC50) is 49.7 µM. Turning to `CCCCCCCCNc1ncnc2ccccc12`, the IC50 was 18.7 µM. With `CSc1nc2cc(Oc3cccc(Cl)c3Cl)c(Cl)cc2[nH]1`, the 50% inhibitory concentration (IC50) was 37.3 µM. Take `O=[N+]([O-])c1cc(O)c2ncccc2c1`: the IC50 is 14.2 µM. To `CC(C)N1CSC(=S)N(Cc2ccccc2)C1` belongs 108 µM. With `O=C(Cn1nc(C(F)F)cc1C(F)F)NNC(=S)Nc1ccc([N+](=O)[O-])cc1`, the IC50 was 139 µM. In the case of `CCc1cccc(NC(=O)CSC2=NS(=O)(=O)c3ccccc32)c1`, the IC50 is 37.3 µM. To `Cc1ccc(C(=O)NCCN2C3=NC[C@@H](Cc4ccccc4)N3C[C@H]2Cc2ccc(O)cc2)cc1Br` belongs 47.2 µM; to `CCOC(=O)N/N=C\c1ccc([N+](=O)[O-])o1`, 33.1 µM; to `CNC(CC(=O)c1ccc([N+](=O)[O-])cc1)C(Cl)(Cl)Cl` (stereo not given), 95 µM. For the compound `Fc1ccc(Nc2c3c(nc4ccccc24)CCC3)cc1`, the IC50 was 35.1 µM. On to `Cc1ccc(NC(=O)c2ccccc2)s1`, for which the IC50 was 75.9 µM.

In the case of `CCn1cc(C(=O)NCc2ccc3c(c2)OCO3)c(=O)c2cc(F)c(N3CCN(C(=O)c4ccco4)CC3)cc21`, the IC50 was 139 µM. For the compound `CC(=O)NC(c1cccs1)c1cc([N+](=O)[O-])c2cccnc2c1O` (stereo not given), the IC50 was 31.7 µM.

On to `O=C(C[n+]1cc(-c2ccc(Cl)c(Cl)c2)n2c1CCC2)N1c2ccccc2Sc2ccccc21`, for which the half-maximal inhibitory concentration (IC50) is 26.9 µM. To `Nc1ncn([C@@H]2O[C@H](CO)[C@@H](O)[C@H]2O)c(=O)n1` belongs 42.5 µM; to `CC1(C)N=C(N)NC(Nc2ccc(Br)cc2)=N1`, 38.8 µM.
